Assay results: patent US10226464B2, “Small molecule NF-κB inhibitors” (ImmuneTarget, Inc., priority 2015, dated 2019)

Experiments:
[1] = target: c-Rel protein (Homo sapiens (Human), UniProt Q04864); assay: Electrophoretic Mobility Shift Assay (EMSA), Rel/NF-κB DNA binding inhibition; settings: 10 nM c-Rel protein, phosphor-labeled CD28RE oligonucleotide
Experimental: Electrophoretic Mobility Shift Assay (EMSA)
DNA binding reaction (20 μL) was carried out in 1×DNA Binding Buffer (10 mM Tris, 40 mM NaCl, 1 mM EDTA, 4% glycerol) with 10 nM c-Rel protein and 0.5 ng phosphor-labeled CD28RE oligonucleotide for 10 minutes at room temperature in 96-well plates. Test compounds, in serial dilutions, were added into each well, and further incubated for 15 minutes before loading onto native 5% polyacrylamide gel. Electrophoresis proceeded for 2.5 hours at 160V. Radioactive signals were quantified using Phospho-Imager. IC50 of compounds of example 1 to 75 were determined by quantifying the intensity of Rel/NF-κB inhibition in EMSA using phospho-imager. An example of EMSA data of the present invention is shown for compound 6 in FIG. 2.

[2] = test system: NF-κB; assay: NF-κB GFP Assay (NFκB/Jurkat/GFP transcriptional reporter cell line); type: cell-based; settings: Homo sapiens; NF-κB/Jurkat/GFP reporter cells, TNF-α 5 ng/ml, 24 hours; read-out: NF-KB GFP IC50
Experimental: NFκB/Jurkat/GFP transcriptional reporter cell line was obtained from SBI System Biosciences. NF-κB/Jurkat/GFP™ Reporter cells (5×10^5 cells) were plated at a concentration of 1 million cells/ml into each well of a 24-well plate. TNF-α (5 ng/ml) was added. Compounds were added via serial dilutions to corresponding wells. After 24 hours, 100 μl of the cells were transferred to a well of a Costar® UV plate (96 well, No lid, w/ UV Transparent Flat Bottom, Corning, N.Y., Cat#3635) and the intensity of GFP fluorescence was measured (Excitation 485+/−20, Emission 528+/−20) in a Synergy™ HT Multi-Detection Microplate Reader (BioTech, Winooski, Vt.). The intensities of GFP measured were plotted against the […].

Sequence of c-Rel protein (Q04864 whole entry): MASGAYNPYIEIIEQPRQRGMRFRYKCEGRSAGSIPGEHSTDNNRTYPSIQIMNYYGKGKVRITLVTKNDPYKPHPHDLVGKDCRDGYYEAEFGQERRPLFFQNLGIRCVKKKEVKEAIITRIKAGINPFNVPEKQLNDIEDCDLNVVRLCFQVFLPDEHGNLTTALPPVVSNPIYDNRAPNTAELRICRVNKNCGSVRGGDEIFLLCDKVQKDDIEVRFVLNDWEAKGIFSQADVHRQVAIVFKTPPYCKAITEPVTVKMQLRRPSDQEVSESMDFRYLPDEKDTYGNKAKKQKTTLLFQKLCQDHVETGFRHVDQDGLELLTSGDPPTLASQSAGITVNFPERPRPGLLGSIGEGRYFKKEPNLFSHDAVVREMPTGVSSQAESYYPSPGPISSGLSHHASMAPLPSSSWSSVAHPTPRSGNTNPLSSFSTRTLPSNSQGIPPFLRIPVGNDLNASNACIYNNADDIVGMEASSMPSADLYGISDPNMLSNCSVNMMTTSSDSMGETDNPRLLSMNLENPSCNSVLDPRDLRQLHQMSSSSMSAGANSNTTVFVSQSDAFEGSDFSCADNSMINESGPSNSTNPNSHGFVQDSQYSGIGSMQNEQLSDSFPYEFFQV

| IC50 [1] | IC50 [2] | SMILES |
| --- | --- | --- |
| < 0.5 µM | < 10 µM | CC(C)(C)CCOc1ccc2cc3c(=O)[nH]c(=O)nc-3oc2c1Cl [Compound 41] |
| < 1 µM | < 5 µM | COCCCCOc1cc2oc3nc(=O)[nH]c(=O)c-3cc2cc1Cl [Compound 69] |
| < 0.5 µM | 10 µM | CC(C)(C)CCOc1cc2oc3nc(=O)[nH]c(=O)c-3cc2cc1F [Compound 34] |
| < 0.5 µM | < 20 µM | CCCCCCOc1cc2oc3nc(=O)[nH]c(=O)c-3cc2cc1Cl [Compound 37] |
| < 1 µM | < 5 µM | COCCOCCOc1cc2oc3nc(=O)[nH]c(=O)c-3cc2cc1Cl [Compound 64] |
| < 0.5 µM | < 3 µM | CCCCOc1ccc2cc3c(=O)[nH]c(=O)nc-3oc2c1Cl [Compound 43] |
| < 0.5 µM | < 20 µM | CC(C)COc1cc2oc3nc(=O)[nH]c(=O)c-3cc2cc1Cl [Compound 38] |
| < 1 µM | < 5 µM | COCCCCOc1cc2oc3nc(=O)[nH]c(=O)c-3cc2cc1F [Compound 70] |
| < 1 µM | < 5 µM | CCCCOc1ccc2cc3c(=O)[nH]c(=O)nc-3oc2c1 [Compound 50] |
| < 0.5 µM | < 5 µM | CCCCCCCOc1ccc2cc3c(=O)[nH]c(=O)nc-3oc2c1F [Compound 52] |
| < 1 µM | < 5 µM | COCCOCCCOc1cc2oc3nc(=O)[nH]c(=O)c-3cc2cc1Cl [Compound 74] |
| < 0.5 µM | < 3 µM | CCCCCCOc1ccc2cc3c(=O)[nH]c(=O)nc-3oc2c1Cl [Compound 44] |
| < 0.5 µM | < 5 µM | CCCCCCCOc1cc2oc3nc(=O)[nH]c(=O)c-3cc2cc1F [Compound 32] |
| < 1 µM | < 5 µM | COCCCCOc1ccc2cc3c(=O)[nH]c(=O)nc-3oc2c1 [Compound 67] |
| < 5 µM | < 20 µM | CC(=O)OCCCCOc1ccc2cc3c(=O)[nH]c(=O)nc-3oc2c1Cl [Compound 60, 4-((9-chloro-2,4-dioxo-3,4-dihydro-2H-chromeno[2,3-d]pyrimidin-8-yl)oxy)butyl acetate] |
| < 5 µM | < 20 µM | CC(=O)OCCCCCCOc1ccc2cc3c(=O)[nH]c(=O)nc-3oc2c1Cl [Compound 58] |
| < 5 µM | < 20 µM | O=C(O)CCCOc1ccc2cc3c(=O)[nH]c(=O)nc-3oc2c1Cl [Compound 55] |
| < 1 µM | < 5 µM | CC(=O)OCCCCOc1ccc2cc3c(=O)[nH]c(=O)nc-3oc2c1 [Compound 51] |
| < 0.5 µM | < 10 µM | CCCCCCCOc1ccc2cc3c(=O)[nH]c(=O)nc-3oc2c1Cl [Compound 42] |
| < 1 µM | < 5 µM | COCCOCCCOc1ccc2cc3c(=O)[nH]c(=O)nc-3oc2c1F [Compound 73] |
| < 1 µM | < 5 µM | COCCOCCOc1ccc2cc3c(=O)[nH]c(=O)nc-3oc2c1Cl [Compound 62] |
| < 1 µM | < 10 µM | CC(C)CCCOc1cc2oc3nc(=O)[nH]c(=O)c-3cc2cc1F [Compound 35] |
| < 0.5 µM | < 3 µM | CC(C)CCOc1cc2oc3nc(=O)[nH]c(=O)c-3cc2cc1F [Compound 33] |
| < 1 µM | < 5 µM | COCCOCCOc1ccc2cc3c(=O)[nH]c(=O)nc-3oc2c1 [Compound 61, 8-(2-(2-methoxyethoxy)ethoxy)-2H-chromeno[2,3-d]pyrimidine-2,4(3H)-dione] |
| < 0.5 µM | < 5 µM | CCCCCCOc1ccc2cc3c(=O)[nH]c(=O)nc-3oc2c1F [Compound 46] |
| < 0.5 µM | < 5 µM | CCCCOc1ccc2cc3c(=O)[nH]c(=O)nc-3oc2c1F [Compound 45] |
| < 0.5 µM | < 5 µM | CCCCCCOc1cc2oc3nc(=O)[nH]c(=O)c-3cc2cc1F [Compound 31] |
| < 0.5 µM | < 5 µM | CC(C)COc1ccc2cc3c(=O)[nH]c(=O)nc-3oc2c1F [Compound 48] |
| < 1 µM | < 5 µM | CCOc1ccc2cc3c(=O)[nH]c(=O)nc-3sc2c1 [Compound 49, 8-ethoxy-2H-thiochromeno[2,3-d]pyrimidine-2,4(3H)-dione] |
| < 5 µM | < 20 µM | CC(=O)OCCCOc1ccc2cc3c(=O)[nH]c(=O)nc-3oc2c1Cl [Compound 59] |

More lines, now with the values behind:

| SMILES | IC50 [1] | IC50 [2] |
| --- | --- | --- |
| CCCCn1c(=O)nc2oc3cc(OCC)ccc3cc-2c1=O [Compound 24, 3-(n-butyl)-8-ethoxy-2H-chromeno[2,3-d]pyrimidine-2,4(3H)-dione] | < 1 µM | < 30 µM |
| O=c1nc2oc3ccccc3cc-2c(=O)[nH]1 [Compound 9, 2H-chromeno[2,3-d]pyrimidine-2,4(3H)-dione] | < 5 µM | < 20 µM |
| CCCOc1cc2oc3nc(=O)[nH]c(=O)c-3cc2cc1Cl [Compound 20, 7-chloro-8-propoxy-2H-chromeno[2,3-d]pyrimidine-2,4(3H)-dione] | < 1 µM | < 5 µM |
| CCCCOc1cc2oc3nc(=O)[nH]c(=O)c-3cc2cc1F [Compound 29] | < 0.5 µM | < 5 µM |
| CCCCn1c(=O)nc2oc3cc(OCC)c(Cl)cc3cc-2c1=O [Compound 26, 3-butyl-7-chloro-8-ethoxy-2H-chromeno[2,3-d]pyrimidine-2,4(3H)-dione] | < 1 µM | < 30 µM |
| Cc1ccc2cc3c(=O)[nH]c(=S)nc-3oc2c1 [Compound 17, 8-methyl-2-thioxo-2H-chromeno[2,3-d]pyrimidin-4(3H)-one] | < 0.5 µM | < 30 µM |
| COc1cc(Cl)cc2cc3c(=O)[nH]c(=O)nc-3oc12 [Compound 3, 7-chloro-9-methoxy-2H-chromeno[2,3-d]pyrimidine-2,4(3H)-dione] | < 2 µM | < 30 µM |
| CCCCCOc1cc2oc3nc(=O)[nH]c(=O)c-3cc2cc1F [Compound 30] | < 0.5 µM | < 10 µM |
| O=c1nc2oc3cc(O)ccc3cc-2c(=O)[nH]1 [Compound 11, 8-hydroxy-2H-chromeno[2,3-d]pyrimidine-2,4(3H)-dione] | < 1 µM | < 20 µM |
| Cc1ccc2cc3c(=O)[nH]c(=O)nc-3oc2c1 [Compound 12, 8-methyl-2H-chromeno[2,3-d]pyrimidine-2,4(3H)-dione] | < 1 µM | 7 µM |
| CCCCCCOc1ccc2cc3c(=O)[nH]c(=O)nc-3oc2c1 [Compound 21, 8-(n-hexyloxy)-2H-chromeno[2,3-d]pyrimidine-2,4(3H)-dione] | < 1 µM | < 5 µM |
| COc1ccc2cc3c(=O)[nH]c(=O)nc-3oc2c1 [Compound 6, 8-methoxy-2H-chromeno[2,3-d]pyrimidine-2,4(3H)-dione] | < 1 µM | < 10 µM |
| COc1ccc2cc3c(=O)[nH]c(=S)nc-3oc2c1 [Compound 8, 8-methoxy-2-thioxo-2H-chromeno[2,3-d]pyrimidin-4(3H)-one] | < 0.5 µM | < 30 µM |
| CCOc1cc(Cl)cc2cc3c(=O)[nH]c(=O)nc-3oc12 [Compound 5] | < 2 µM | < 30 µM |
| CCCOc1ccc2cc3c(=O)[nH]c(=O)nc-3oc2c1 [Compound 19, 8-propoxy-2H-chromeno[2,3-d]pyrimidine-2,4(3H)-dione] | < 1 µM | < 5 µM |
| CCOc1cc2oc3nc(=O)[nH]c(=O)c-3cc2cc1F [Compound 28, 8-ethoxy-7-fluoro-2H-chromeno[2,3-d]pyrimidine-2,4(3H)-dione] | < 0.5 µM | < 5 µM |
| CCCc1cc2oc3nc(=O)[nH]c(=O)c-3cc2cc1Cl [Compound 25, 7-chloro-8-propyl-2H-chromeno[2,3-d]pyrimidine-2,4(3H)-dione] | < 1 µM | < 30 µM |
| COc1ccc2oc3nc(=S)[nH]c(=O)c-3cc2c1 [Compound 15, 7-methoxy-2-thioxo-2H-chromeno[2,3-d]pyrimidin-4(3H)-one] | < 0.5 µM | < 30 µM |
| COCCCCOc1ccc2cc3c(=O)[nH]c(=O)nc-3oc2c1Cl [Compound 66, 9-chloro-8-(4-methoxybutoxy)-2H-chromeno[2,3-d]pyrimidine-2,4(3H)-dione] | < 1 µM | < 5 µM |
| COc1cc(Cl)cc2cc3c(=O)[nH]c(=S)nc-3oc12 [Compound 7, 7-chloro-9-methoxy-2-thioxo-2H-chromeno[2,3-d]pyrimidin-4(3H)-one] | < 2 µM | < 30 µM |
| CCOc1ccc2cc3c(=O)[nH]c(=O)nc-3oc2c1 [Compound 13, 8-ethoxy-2H-chromeno[2,3-d]pyrimidine-2,4(3H)-dione] | < 1 µM | 9 µM |
| COc1cccc2cc3c(=O)[nH]c(=O)nc-3oc12 [Compound 1, 9-methoxy-2H-chromeno[2,3-d]pyrimidine-2,4(3H)-dione] | < 2 µM | < 30 µM |
| COc1cc(OC)c2cc3c(=O)[nH]c(=S)nc-3oc2c1 [Compound 18, 6,8-dimethoxy-2-thioxo-2H-chromeno[2,3-d]pyrimidin-4(3H)-one] | < 0.5 µM | – |
